We go through 24 compounds from patent US5750550A, “2-(pyrazol-5-yl-oxymethyl)-1,2-benzisothiazol-3 (2H)-One 1, 1-dioxides and compositions and method of use thereof” (Sanofi, priority 1995, dated 1998).

This experiment deals with T1, human leukocyte elastase (Homo sapiens, UniProt P08246).
T1 sequence (P08246 30-267): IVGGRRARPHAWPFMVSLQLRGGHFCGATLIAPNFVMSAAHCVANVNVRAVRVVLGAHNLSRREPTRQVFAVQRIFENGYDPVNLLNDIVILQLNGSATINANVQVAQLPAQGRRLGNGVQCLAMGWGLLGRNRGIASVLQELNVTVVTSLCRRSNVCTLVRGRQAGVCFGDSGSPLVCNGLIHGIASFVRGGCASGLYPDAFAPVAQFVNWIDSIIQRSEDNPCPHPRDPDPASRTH
Kind of experiment: human leukocyte elastase (HLE) inhibitory activity, substrate MeOSuc-Ala-Ala-Pro-Val-pNA. It is filed as biochemical. As to conditions: pH 7.8, 25° C., steady-state velocities. The protocol:
The test compound (inhibitor) is dissolved in DMSO in a vial to produce an inhibitor stock solution which has a concentration in the range of 200-1000 μM. The inhibitor stock solution is diluted (1:4, 1:16 and 1:64) into assay vials (vials 1, 2 and 3 respectively) containing 2.4 mL of buffer solution (50 mM N-[2-hydroxyethyl] piperazine-N'-[2-ethanesulfonic acid]/NaOH, 500 mM NaCl, pH 7.8 at 25° C.) and DMSO is added so that the total volume in each vial is 3.2 mL. 70 μL, 50 μL, 35 μL and 25 μL of inhibitor from assay vial 1 is placed into the first four wells of a 96-well microtiter plate and each well is made up to 90 μL total volume with the addition of a 25% DMSO/buffer solution. The inhibitor from assay vials 2 and 3 is processed in a similar manner and placed in wells 5-12 respectively to afford a total of 12 different inhibitor concentrations. Four wells (wells 13-16) containing 90 μL of the 25% DMSO/buffer solution but no inhibitor are also run simultaneously with the inhibited wells as a control. 150 μL of substrate solution (prepared by the addition of 500 μL of the human leukocyte elastase (HLE) substrate MeOSuc-Ala-Ala-Pro-Val-pNA (18.7 mM in DMSO) to 19.5 mL of buffer solution) is then added simultaneously into each of the 16 wells and the solution in each well was thoroughly mixed.
The 96-well microtiter plate is placed into a Microplate Reader #89815A spectrophotometer and 110 μL of the enzyme solution (prepared as follows: a mixture of 20 mL of buffer solution and 20 mg of bovine serum albumen is gently vortexed in a scintillation vial and 5 μL HLE stock solution (1 mg/mL dissolved in deionized water) is added) is added simultaneously to each of the 16 wells. Each of the solutions in the wells is throughly mixed and then the time-dependent absorbance data is collected at an absorbance of 410 nm until the assay is complete. It should be noted that although this assay method can be done manually, it is preferred to perform the assay robotically using a Hewlett Packard MicroAssay System Robot. the absorbance versus time data thus obtained affords curves the final slope of which is equal to the final steady-statevelocities (VF). Using the program ENZFITTER (Elsevier software), the progress curves for the four control assays ([I]=0 are fit by linear regression to yield the enzyme reaction velocity values in the absences of inhibitor (Vo) which are averaged to produce a single fixed value. The inhibition constant Ki (nM) is then obtained from a plot of [formula] which affords a linear plot wherein: [formula] and [S] is the concentration of the substrate and Km is the Michaelis constant.
Table I summarizes the results obtained from the testing of compounds of the invention for human leukocyte elastase inhibitory activity.
In general, Ki refers to the dissociation constant of the complex between target and ligand, obtained from inhibition or displacement. In turn, `COc1cc(C(C)C)c2c(c1)S(=O)(=O)N(COc1cc(C(=O)OC(C)(C)C)nn1-c1ccccc1)C2=O` [33 (b), 4-isoorooyl-6-methoxy-2-[1-phenyl-3-(t-butoxycarbonyl)pyrazol-5-yl-oxymethyl]-1,2-benzisothiazol-23 (2H)-one 1,1-dioxide] gave a Ki of 0.1 nM.

As for `COc1cc(C(C)C)c2c(c1)S(=O)(=O)N(COc1cc(C(F)(F)F)nn1-c1ncc(Cl)cc1C(F)(F)F)C2=O` [34 (b), 4-isopropyyl-6-methoxy-2-[1-(5-chloro-3-trifluoromethyl-2-pyridyl)-3-trifluoromethylpyrazol-5-yl-oxymethyl]-1,2-benzisothiazol-3(2H)-one 1,1-dioxide], affinity was put at a Ki of 0.027 nM. This Ki is about 3.7-fold lower than that of the compound before.

`COc1cc(C(C)C)c2c(c1)S(=O)(=O)N(COc1cc(C(F)(F)F)nn1-c1cccc(C(F)(F)F)n1)C2=O` [36 (b), 4-isopropyl-6-methoxy-2-[1-(6-trifluoromethyl-2-pyridyl)-3-trifluoromethylpyrazol-5-yl-oxymethyl]-1,2-benzisothiazol-3(2H)-one 1,1-dioxide] had a Ki of 0.029 nM. This Ki and that of the compound before are within 1.5-fold of each other.

`CC(C)c1cc(OCCCCCC(=O)O)cc2c1C(=O)N(COc1cc(C(F)(F)F)nn1-c1ccccc1)S2(=O)=O` [37 (f), 4-isopropyl-6-[5-(carboxy)-enthyloxy]-2-(1-phenyl-3-trifluoromethylpyrazol-5-yl-oxymethyl)-1,2-benzisothiazol-3(2H)-one 1,1-dioxide]: affinity was put at a Ki of 0.081 nM.

Compound `CC(C)c1cc(OCCC(C)(C)C(=O)O)cc2c1C(=O)N(COc1cc(C(F)(F)F)nn1-c1ccccc1)S2(=O)=O` [38 (d)] returned a Ki of 0.18 nM.

The compound `CC(C)c1cc(O)cc2c1C(=O)N(COc1cc(C(F)(F)F)nn1-c1ccc(Cl)cc1)S2(=O)=O` [39 (a), 4-isopropyl-6-hydroxy-2-[1-(4-chlorophenyl)-3-trifluoromethylpyrazol-5-yl-oxymethyl]-1,2-benzisothiazol-3(2H)-one 1,1-dioxide] yielded a Ki of 1.9 nM.

With `CC(C)c1cc(OCCCC(=O)O)cc2c1C(=O)N(COc1cc(C(F)(F)F)nn1-c1ccc(Cl)cc1)S2(=O)=O` [39 (c), 4-isopropyl-6-[3-(carboxy)propoxy]-2-[1-(4-chlorophenyl)-3-trifluoromethylpyrazol-5-yl-oxymethyl]-1,2-benzisothiazol-3(2H)-one 1,1-dioxide], the Ki stood at 0.074 nM.

`COc1ccc(COC(=O)c2ccc(COc3cc(C(C)C)c4c(c3)S(=O)(=O)N(COc3cc(C(F)(F)F)nn3-c3ccccc3)C4=O)o2)cc1` [42 (b)] came in with a Ki of 0.081 nM.

The compound `COc1cc(C(C)C)c2c(c1)S(=O)(=O)N(COc1cc(C(F)(F)F)nn1-c1ncccc1C)C2=O` [45 (b), 4-isopropyl-6-methoxy-2-[1-(3-methyl-2-pyridyl)-3-trifluoromethylpyrazol-5-yl-oxymethyl]-1,2-benzisothiazol-3(2H)-one 1,1-dioxide] returned a Ki of 0.061 nM.

`COc1cc(C(C)C)c2c(c1)S(=O)(=O)N(COc1cc(C#N)nn1-c1ccc(Cl)cc1Cl)C2=O` [50 (b), 4-isopropyl-6-methoxy-2-[1-(2,4-dichlorophenyl)-3-cyanopyrazol-5-yl-oxymethyl]-1,2-benzisothiazol-3(2H)-one 1,1-dioxide] gave a Ki of 0.058 nM.

`COc1cc(C(C)C)c2c(c1)S(=O)(=O)N(COc1cc(C(F)(F)F)nn1-c1cccc(Cl)c1)C2=O` [51 (b), 4-isopropyl-6-methoxy-2-[1-(3-chlorophenyl)-3-trifluoromethylpyrazol-5-yl-oxymethyl]-1,2-benzisothiazol-3(2H)-one 1,1-dioxide] showed a Ki of 0.13 nM.

In turn, `COc1cc(C(C)C)c2c(c1)S(=O)(=O)N(COc1cc(Br)nn1-c1ccccc1)C2=O` [52 (b), 4-isopropyl-6-methoxy-2-[1-phenyl-3-bromopyrazol-5-yl-oxymethyl]-1,2-benzisothiazol-3(2H)-one 1,1-dioxide] showed a Ki of 0.066 nM.

`COc1cc(C(C)C)c2c(c1)S(=O)(=O)N(COc1cc(C)nn1C)C2=O` [Example 1, 4-isopropyl-6-methoxy-2-(1,3-dimethylpyrazol-5-yl-oxymethyl)-1,2-benzisothiazol-3(2H)-one 1,1-dioxide] yielded a Ki of 0.73 nM.

Compound `COc1cc(C(C)C)c2c(c1)S(=O)(=O)N(COc1cc(C(F)(F)F)nn1-c1ccccc1)C2=O` [Example 3, 4-isopropyl-6-methoxy-2-(1-phenyl-3-trifluoromethylpyrazol-5-yl-oxymethyl)-1,2-benzisothiazol-3(2H)-one 1,1-dioxide] had a Ki of 0.068 nM. Against the preceding compound, the Ki is about 11-fold lower.

Compound `COc1cc(C(C)C)c2c(c1)S(=O)(=O)N(COc1cc(C)nn1-c1ccc([N+](=O)[O-])cc1)C2=O` [Example 7, 4-isopropyl-6-methoxy-2-[1-(p-nitrophenyl)-3-methylpyrazol-5-yl-oxymethyl]-1,2-benzisothiazol-3(2H)-one 1,1-dioxide] yielded a Ki of 0.076 nM.

With `CC(C)c1cc(O)cc2c1C(=O)N(COc1cc(C(F)(F)F)nn1-c1ccccc1)S2(=O)=O` [Example 9, 4-iso-ropyl-6-hydroxy-2-(1-phenyl-3-trifluoromethylpyrazol-5-yl-oxymethyl)-1,2-benzisothiazol-3(2H)-one 1,1-dioxide], the Ki amounted to 0.78 nM.

Turning to `CCOC(=O)c1cc(OCN2C(=O)c3c(C(C)C)cc(OC)cc3S2(=O)=O)n(-c2ccccc2)n1` [Example 12, 4-isopropyl-6-methoxy-2-(1-phenyl-3-ethoxycarbonylpyrazol-5-yl-oxymethyl)-1,2-benzisothiazol-3(2H)-one 1,1-dioxide], the affinity, expressed as Ki, was 0.077 nM. This Ki is about 10-fold lower than that of the compound before.

Compound `CC(C)c1cc(OCc2ccc(CN(C)C)o2)cc2c1C(=O)N(COc1cc(C(F)(F)F)nn1-c1ccccc1)S2(=O)=O` [Example 13] gave a Ki of 0.12 nM.

Regarding `COc1cc(C(C)C)c2c(c1)S(=O)(=O)N(COc1cc(C(=O)O)nn1-c1ccccc1)C2=O` [Example 21, 4-isopropyl-6-methoxy-2-[1-phenyl-3-(carboxy)pyrazol-5-yl-oxymethyl]-1,2-benzisothiazol-3(2H)-one 1,1-dioxide], affinity was put at a Ki of 0.31 nM.

The compound `COc1cc(C(C)C)c2c(c1)S(=O)(=O)N(COc1cc(C(F)(F)F)nn1C)C2=O` [Example 25, 4-isopropyl-6-methoxy-2-(1-methyl-3-trifluoromethylpyrazol-5-yl-oxymethyl)-1,2-benzisothiazol-3(2H)-one 1,1-dioxide] came in with a Ki of 0.1 nM.

`COc1cc(C(C)C)c2c(c1)S(=O)(=O)N(COc1cc(C#N)nn1-c1ccccc1)C2=O` [Example 35, 4-isopropyl-6-methoxy-2-(1-phenyl-3-cyanopyrazol-5-yl-oxymethyl)-1,2-benziso thiazol-3(2H)-one 1,1-dioxide]: the Ki is 0.014 nM. Against the preceding compound, the Ki is about 7.1-fold lower.

`COc1cc(C(C)C)c2c(c1)S(=O)(=O)N(COc1cc(C#N)nn1-c1ccc(Cl)cc1)C2=O` [Example 46, 4-isopropyl-6-methoxy-2-[1-(4-chlorophenyl)-3-cyanopyrazol-5-yl-oxymethyl]-1,2-benzisothiazol-3(2H)-one 1,1-dioxide] displayed a Ki of 0.19 nM.

Regarding `CCOc1cc(OCC)c2c(c1)S(=O)(=O)N(COc1cc(C(F)(F)F)nn1-c1ccccc1)C2=O` [Example 47, 4,6-diethoxy-2-[1-phenyl-3-trifluoromethylpyrazol-5-yl-oxymethyl]-1,2-benzisothiazol-3(2H)-one 1,1-dioxide], the Ki worked out at 0.5 nM. This Ki lies about 2.6-fold higher than the previous one.

As to `COc1cc(C(C)C)c2c(c1)S(=O)(=O)N(COc1cc(C(F)(F)F)nn1Cc1ccccc1)C2=O` [Example 48, 4-isopropyl-6-methoxy-2-[1-benzyl-3-trifluoromethylpyrazol-5-yl-oxymethyl]-1,2-benzisothiazol-3(2H)-one 1,1-dioxide], the Ki turned out to be 39 nM. Against the preceding compound, the Ki is about 78-fold higher.
